As a reminder, the IC50 is the concentration needed to halve the response being measured.

This assay has as its system JR251 or RBL cells. As to the kind of experiment: Store-operated calcium entry, either JR251 or RBL cells, or both. Type of assay: cell-based. How it is done:
The day prior to performing the assay, RBL-2H3 cells are plated in 50 μL of complete medium in a 384 well plate. Cells are grown at 37° C./6% CO2 overnight and grow to 50-60% confluence by the next day. On the assay day, 1.5 μM Fluo-4-AM dye (Invitrogen) in complete medium is added and incubated for 1 hour at RT. Cells are washed twice in Ca^2+-free HBSS buffer and 35 μL Ca^2+-free HBSS buffer is added to each well. 10 μL of a test compound prepared in a Ca^2+-free HBSS solution at 4.5× of the desired concentration is added to a well and incubated for 5 minutes at RT. 10 μL of thapsigargin prepared in a Ca^2+-free HBSS solution at 5.5× of the desired concentration (5.5 uM) is added to each well and incubated for an additional 25 minutes. The initial baseline fluorescence signal is measured with a FLIPR^384 (Molecular Devices) plate reader. 5 μL of 12× calcium in HBSS (12 mM) is added and changes in cellular fluorescence are measured with the FLIPR^384 plate reader. In each well, the change in the fluorescent signal as a function of time due to calcium entry into the cell is determined by calculating the difference between the fluorescent signal measured 7 seconds after calcium addition and the initial baseline fluorescence signal at time zero (t=0). This parameter is designated Upslope. The IC50 value is calculated as the concentration at which 50% of the Upslope is inhibited.
In the case of `Cc1ccc(-c2csc(NC(=O)c3nc4cc(Br)ccc4o3)c2C(=O)O)c(F)c1F` [2-(5-bromobenzo[d]oxazole-2-carboxamido)-4-(2,3-difluoro-4-methylphenyl)thiophene-3-carboxylic acid], the half-maximal inhibitory concentration (IC50) was less than 10 µM.

As for `O=C(Nc1scc(-c2ccc(Cl)cc2)c1C(=O)O)c1nc2cc(Br)ccc2o1` [2-(5-bromobenzo[d]oxazole-2-carboxamido)-4-(4-chlorophenyl)thiophene-3-carboxylic acid], the IC50 was less than 10 µM.

Turning to `O=C(O)c1c(-c2ccc(Cl)cc2)csc1NC(=O)C1Cc2cc(Cl)ccc2O1` (stereo not drawn) [2-(5-chloro-2,3-dihydrobenzofuran-2-carboxamido)-4-(4-chlorophenyl)thiophene-3-carboxylic acid], the IC50 was less than 10 µM.

As for `COc1c(C(=O)Nc2scc(-c3ccc(Cl)cc3)c2C(=O)O)csc1Cl` [2-(5-chloro-4-methoxythiophene-3-carboxamido)-4-(4-chlorophenyl)thiophene-3-carboxylic acid], the IC50 was less than 10 µM.

As for `Cc1ccc(-c2csc(NC(=O)c3nc4cc(Cl)ccc4o3)c2C(=O)O)c(F)c1F` [2-(5-chlorobenzo[d]oxazole-2-carboxamido)-4-(2,3-difluoro-4-methylphenyl)thiophene-3-carboxylic acid], the concentration for half-maximal inhibition (IC50) was less than 10 µM.

Regarding `O=C(Nc1scc(-c2ccc(Cl)cc2)c1C(=O)O)c1nc2cc(Cl)ccc2o1` [2-(5-chlorobenzo[d]oxazole-2-carboxamido)-4-(4-chlorophenyl)thiophene-3-carboxylic acid], the IC50 is less than 10 µM.

With `Cc1ccc(-c2csc(NC(=O)c3ccc(-c4ccccc4)s3)c2C(=O)O)cc1` [2-(5-phenylthiophene-2-carboxamido)-4-p-tolylthiophene-3-carboxylic acid], the IC50 is less than 10 µM.

Take `Cc1ccc(-c2csc(NC(=O)c3nc4ccc(Br)cc4o3)c2C(=O)O)c(F)c1F` [2-(6-bromobenzo[d]oxazole-2-carboxamido)-4-(2,3-difluoro-4-methylphenyl)thiophene-3-carboxylic acid]: the half-maximal inhibitory concentration (IC50) was less than 10 µM.

For the molecule `Cc1ccc(-c2csc(NC(=O)c3nc4cccc(Br)c4o3)c2C(=O)O)c(F)c1F` [2-(7-bromobenzo[d]oxazole-2-carboxamido)-4-(2,3-difluoro-4-methylphenyl)thiophene-3-carboxylic acid], the IC50 was less than 10 µM.

As to `O=C(Nc1scc(-c2ccc(Cl)cc2)c1C(=O)O)c1nc2cccc(Br)c2o1` [2-(7-bromobenzo[d]oxazole-2-carboxamido)-4-(4-chlorophenyl) thiophene-3-carboxylic acid], the concentration for half-maximal inhibition (IC50) is less than 10 µM.

In the case of `Cc1ccc(-c2csc(NC(=O)c3nc4cccc(C#N)c4o3)c2C(=O)O)c(F)c1F` [2-(7-cyanobenzo[d]oxazole-2-carboxamido)-4-(2,3-difluoro-4-methylphenyl)thiophene-3-carboxylic acid], the half-inhibitory concentration (IC50) was less than 10 µM.

Take `O=C(Nc1scc(-c2cc3cccc(O)c3o2)c1C(=O)O)c1nc2cccc(F)c2o1` [2-(7-fluorobenzo[d]oxazole-2-carboxamido)-4-(7-hydroxybenzofuran-2-yl)thiophene-3-carboxylic acid]: the IC50 was less than 10 µM.

As for `O=C(Nc1scc(-c2cc3cccc(O)c3o2)c1C(=O)O)c1cc2cccc(O)c2o1` [2-(7-hydroxybenzofuran-2-carboxamido)-4-(7-hydroxybenzofuran-2-yl)thiophene-3-carboxylic acid], the IC50 was less than 10 µM.

Turning to `O=C(Nc1scc(-c2ccc(Cl)cc2)c1C(=O)O)OCc1ccccc1Cl` [2-((2-chlorobenzyloxy)carbonylamino)-4-(4-chlorophenyl)thiophene-3-carboxylic acid], the 50% inhibitory concentration (IC50) was less than 10 µM.

`Cc1ccc(-c2csc(NC(=O)c3ccc4snnc4c3)c2C(=O)O)c(F)c1F` [2-(benzo[d][1,2,3]thiadiazole-5-carboxamido)-4-(2,3-difluoro-4-methylphenyl)thiophene-3-carboxylic acid]: the 50% inhibitory concentration (IC50) was less than 10 µM.

With `O=C(Nc1scc(-c2ccc(Cl)c(Cl)c2)c1C(=O)O)c1ccc2snnc2c1` [2-(benzo[d][1,2,3]thiadiazole-5-carboxamido)-4-(3,4-dichlorophenyl)thiophene-3-carboxylic acid], the IC50 was less than 10 µM.

For `O=C(Nc1scc(-c2ccc(Br)cc2)c1C(=O)O)c1ccc2snnc2c1` [2-(benzo[d][1,2,3]thiadiazole-5-carboxamido)-4-(4-bromophenyl)thiophene-3-carboxylic acid], the 50% inhibitory concentration (IC50) was less than 10 µM.

Take `O=C(Nc1scc(-c2ccc(Cl)c(F)c2)c1C(=O)O)c1ccc2snnc2c1` [2-(benzo[d][1,2,3]thiadiazole-5-carboxamido)-4-(4-chloro-3-fluorophenyl)thiophene-3-carboxylic acid]: the IC50 was less than 10 µM.

Consider `COc1cc(-c2csc(NC(=O)c3ccc4snnc4c3)c2C(=O)O)ccc1Cl` [2-(benzo[d][1,2,3]thiadiazole-5-carboxamido)-4-(4-chloro-3-methoxyphenyl)thiophene-3-carboxylic acid], for which the half-maximal inhibitory concentration (IC50) is less than 10 µM.

Regarding `O=C(Nc1scc(-c2ccc(Cl)cc2)c1C(=O)O)c1ccc2snnc2c1` [2-(benzo[d][1,2,3]thiadiazole-5-carboxamido)-4-(4-chlorophenyl)thiophene-3-carboxylic acid], the IC50 was less than 10 µM.

Consider `N#Cc1ccc(-c2csc(NC(=O)c3ccc4snnc4c3)c2C(=O)O)cc1` [2-(benzo[d][1,2,3]thiadiazole-5-carboxamido)-4-(4-cyanophenyl)thiophene-3-carboxylic acid], for which the IC50 was less than 10 µM.

For `O=C(Nc1scc(-c2cc3cccc(O)c3o2)c1C(=O)O)c1ccc2snnc2c1` [2-(benzo[d][1,2,3]thiadiazole-5-carboxamido)-4-(7-hydroxybenzofuran-2-yl)thiophene-3-carboxylic acid], the IC50 is less than 10 µM.

Consider `COc1cccc2cc(-c3csc(NC(=O)c4ccc5snnc5c4)c3C(=O)O)oc12` [2-(benzo[d][1,2,3]thiadiazole-5-carboxamido)-4-(7-methoxybenzofuran-2-yl)thiophene-3-carboxylic acid], for which the IC50 was less than 10 µM.

For `O=C(Nc1scc(-c2ccc(Br)cc2)c1C(=O)O)c1ccc2nnsc2c1` [2-(benzo[d][1,2,3]thiadiazole-6-carboxamido)-4-(4-bromophenyl)thiophene-3-carboxylic acid], the half-maximal inhibitory concentration (IC50) was less than 10 µM.

Regarding `O=C(Nc1scc(-c2ccc(Cl)cc2)c1C(=O)O)c1ccc2nnsc2c1` [2-(benzo[d][1,2,3]thiadiazole-6-carboxamido)-4-(4-chlorophenyl)thiophene-3-carboxylic acid], the half-inhibitory concentration (IC50) is less than 10 µM.

For the molecule `O=C(Nc1scc(-c2cc3cccc(O)c3o2)c1C(=O)O)c1ccc2nnsc2c1` [2-(benzo[d][1,2,3]thiadiazole-6-carboxamido)-4-(7-hydroxybenzofuran-2-yl)thiophene-3-carboxylic acid], the 50% inhibitory concentration (IC50) is less than 10 µM.

Turning to `O=C(Nc1scc(-c2ccc(F)c(F)c2F)c1C(=O)O)c1nc2ccccc2o1` [2-(benzo[d]oxazole-2-carboxamido)-4-(2,3,4-trifluorophenyl)thiophene-3-carboxylic acid], the IC50 is less than 10 µM.

As to `Cc1ccc(-c2csc(NC(=O)c3nc4ccccc4o3)c2C(=O)O)c(F)c1F` [2-(benzo[d]oxazole-2-carboxamido)-4-(2,3-difluoro-4-methylphenyl)thiophene-3-carboxylic acid], the half-inhibitory concentration (IC50) is less than 10 µM.

Consider `O=C(Nc1scc(-c2ccc3c(c2)CCC3)c1C(=O)O)c1nc2ccccc2o1` [2-(benzo[d]oxazole-2-carboxamido)-4-(2,3-dihydro-1H-inden-5-yl)thiophene-3-carboxylic acid], for which the IC50 is less than 10 µM.

Regarding `O=C(Nc1scc(-c2ccc3c(c2)CCO3)c1C(=O)O)c1nc2ccccc2o1` [2-(benzo[d]oxazole-2-carboxamido)-4-(2,3-dihydrobenzofuran-5-yl)thiophene-3-carboxylic acid], the IC50 is less than 10 µM.

Consider `O=C(Nc1scc(-c2ccc(F)c(O)c2F)c1C(=O)O)c1nc2ccccc2o1` [2-(benzo[d]oxazole-2-carboxamido)-4-(2,4-difluoro-3-hydroxyphenyl)thiophene-3-carboxylic acid], for which the IC50 was less than 10 µM.

Regarding `COc1c(F)ccc(-c2csc(NC(=O)c3nc4ccccc4o3)c2C(=O)O)c1F` [2-(benzo[d]oxazole-2-carboxamido)-4-(2,4-difluoro-3-methoxyphenyl)thiophene-3-carboxylic acid], the IC50 is less than 10 µM.

`O=C(Nc1scc(-c2ccc(F)cc2F)c1C(=O)O)c1nc2ccccc2o1` [2-(benzo[d]oxazole-2-carboxamido)-4-(2,4-difluorophenyl)thiophene-3-carboxylic acid]: the IC50 is less than 10 µM.

As to `O=C(Nc1scc(-c2ccc(C(F)(F)F)cc2Cl)c1C(=O)O)c1nc2ccccc2o1` [2-(benzo[d]oxazole-2-carboxamido)-4-(2-chloro-4-(trifluoromethyl)phenyl)thiophene-3-carboxylic acid], the IC50 is less than 10 µM.

Consider `COc1ccc(-c2csc(NC(=O)c3nc4ccccc4o3)c2C(=O)O)c(Cl)c1` [2-(benzo[d]oxazole-2-carboxamido)-4-(2-chloro-4-methoxyphenyl)thiophene-3-carboxylic acid], for which the IC50 was less than 10 µM.

In the case of `Cc1ccc(-c2csc(NC(=O)c3nc4ccccc4o3)c2C(=O)O)c(Cl)c1` [2-(benzo[d]oxazole-2-carboxamido)-4-(2-chloro-4-methylphenyl)thiophene-3-carboxylic acid], the IC50 is less than 10 µM.

For the origin of these results see patent US8394848B2, “Compounds that modulate intracellular calcium” (Calcimedica, Inc., priority 2008, dated 2013).
